Experimental data: patent publication US5075287A, “Muramyl peptide derivatives and immunoregulating compositions containing them” (priority 1989, dated 1991)
Read-outs that look alike come from different tables or passages of the source.

Key:
[1] = tested on: L-1210 mouse leukemia cells; assay: Activation of macrophages (growth inhibition of tumor cells by intraperitoneal macrophages of treated mice, MTT assay); format: cell-based; conditions: macrophages taken 3 days after i.p. 0.2 ml of 500 μg/ml, macrophage:L-1210 20:1, 72 hours
[2] = tested on: influenza HA vaccine (B/Nagasaki/1/87 strain); format: in vivo, female CDF1 mice; conditions: Experiment 1, 5000-fold dilution
[3] = tested on: hepatitis B virus surface antigen (HBs); assay: Hepatitis-vaccine enhancing activity (adjuvant activity): anti-HBs IgG in mouse serum by ELISA; format: in vivo, female CDF1 mice; conditions: Experiment 1, 5000-fold dilution
Method in brief: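 Female CDF1 mice (n=7) given 0.2 ml i.p. of compound in lipid microspheres (1 mg/ml) mixed 1:1 with HBs antigen (50 μg/ml), boosted identically at 3 weeks. Sera from weekly fundus bleeds before and after boost. Anti-HBs IgG measured by ELISA.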

[4] = 1 W after i.p. administration, compound in lipidmicrosphere + HA vaccine
[5] = 4 W (after secondary stimulation at 3 weeks)
[6] = 5 W (after secondary stimulation at 3 weeks)
[7] = 1 W after i.p. administration, compound in lipidmicrosphere + HBs

CCCCCCCCCCCCCCC(CCCCCCCCCCCCCC)C(=O)S[C@@H]1O[C@H](COC(=O)CCCCCCCCC)[C@@H](O)[C@H](O[C@H](C)C(=O)N[C@@H](C)C(=O)N[C@H](CCC(=O)OC)C(N)=O)[C@H]1NC(C)=O [Example 8, N-[2-0-{2-Acetamido-2,3-dideoxy-6-0-decanoyl-1-S-(2-tetradecylhexadecanoyl)-1-thio-β-D-glucopyranos-3--yl}-D-lactoyl]-L-alanyl-D-isoglutamine methylester]
Growth inhibitory ratio of L-1210 mouse leukemia cells [1]: 57.9% | Anti HA serum antigen value (average value ± S.D.) [2, 4]: 0.001 ± 0.001 O.D 415 nm | Anti HA serum antigen value (average value ± S.D.) ([2]; 2 W): 0.105 ± 0.005 O.D 415 nm | Anti HA serum antigen value (average value ± S.D.) ([2]; 3 W): 0.246 ± 0.004 O.D 415 nm | Anti HA serum antigen value (average value ± S.D.) [2, 5]: 1.246 ± 0.019 O.D 415 nm | Anti HA serum antigen value (average value ± S.D.) [2, 6]: 1.267 ± 0.023 O.D 415 nm | Anti-HBs IgG antibody level in serum (ELISA absorbance at 415 nm) [3, 7]: 0 O.D 415 nm | Anti-HBs IgG antibody level in serum (ELISA absorbance at 415 nm) ([3]; 2 W): 0.067 ± 0.003 O.D 415 nm | Anti-HBs IgG antibody level in serum (ELISA absorbance at 415 nm) ([3]; 3 W): 0.114 ± 0.002 O.D 415 nm | Anti-HBs IgG antibody level in serum (ELISA absorbance at 415 nm) [3, 5]: 0.897 ± 0.012 O.D 415 nm | Anti-HBs IgG antibody level in serum (ELISA absorbance at 415 nm) [3, 6]: 0.845 ± 0.016 O.D 415 nm

CCCCCCCCCCCCCC(=O)O[C@H](CCCCCCCCCCC)CC(=O)S[C@@H]1O[C@H](CO)[C@@H](O)[C@H](O[C@H](C)C(=O)N[C@@H](C)C(=O)N[C@H](CCC(=O)OC)C(N)=O)[C@H]1NC(C)=O [Example 4, N-[2-0-{2-Acetamido-2,3-dideoxy-1-S-[[3R)-3-tetradecanoyloxytetradecanoyl)-1-thio-β-D-glucopyranos-3-yl}-D-lactoyl]-L-alanyl-D-isoglutamine methylester]
Growth inhibitory ratio of L-1210 mouse leukemia cells [1]: 45.2% | Anti HA serum antigen value (average value ± S.D.) [2, 4]: 0.004 ± 0.001 O.D 415 nm | Anti HA serum antigen value (average value ± S.D.) ([2]; 2 W): 0.215 ± 0.001 O.D 415 nm | Anti HA serum antigen value (average value ± S.D.) ([2]; 3 W): 0.381 ± 0.004 O.D 415 nm | Anti HA serum antigen value (average value ± S.D.) [2, 5]: 1.204 ± 0.012 O.D 415 nm | Anti HA serum antigen value (average value ± S.D.) [2, 6]: 1.150 ± 0.016 O.D 415 nm | Anti-HBs IgG antibody level in serum (ELISA absorbance at 415 nm) [3, 7]: 0 O.D 415 nm | Anti-HBs IgG antibody level in serum (ELISA absorbance at 415 nm) ([3]; 2 W): 0.073 ± 0.001 O.D 415 nm | Anti-HBs IgG antibody level in serum (ELISA absorbance at 415 nm) ([3]; 3 W): 0.111 ± 0.007 O.D 415 nm | Anti-HBs IgG antibody level in serum (ELISA absorbance at 415 nm) [3, 5]: 0.848 ± 0.009 O.D 415 nm | Anti-HBs IgG antibody level in serum (ELISA absorbance at 415 nm) [3, 6]: 0.935 ± 0.022 O.D 415 nm
